Test results taken from ChEMBL document CHEMBL1131851, “Synthesis and fluorescence properties of Oregon Green 514 labeled peptides” (Bioorg Med Chem Lett, 1999).

Experiment: Acid dissociation constant of the compound.
Assay type: ADME

Molecule `O=C(O)CSc1c(F)c(F)c(C(=O)O)c(-c2c3cc(F)c(=O)cc-3oc3cc(O)c(F)cc23)c1F` has a pKa of 4.8.
In the case of `O=C(O)c1ccc(C(=O)O)c(-c2c3ccc(=O)cc-3oc3cc(O)ccc23)c1` [6-Carboxyfluorescein], the pKa is reported as 6.4.
